Here are results for 2 compounds from patent US20230301981A1, “TLR7/8 ANTAGONISTS AND USES THEREOF” (Merck Patent GmbH, priority 2020, published 2023).

In one test the target is T1, TLR7 (Homo sapiens, UniProt Q9NYK1).
T1 sequence (Q9NYK1 27-1049): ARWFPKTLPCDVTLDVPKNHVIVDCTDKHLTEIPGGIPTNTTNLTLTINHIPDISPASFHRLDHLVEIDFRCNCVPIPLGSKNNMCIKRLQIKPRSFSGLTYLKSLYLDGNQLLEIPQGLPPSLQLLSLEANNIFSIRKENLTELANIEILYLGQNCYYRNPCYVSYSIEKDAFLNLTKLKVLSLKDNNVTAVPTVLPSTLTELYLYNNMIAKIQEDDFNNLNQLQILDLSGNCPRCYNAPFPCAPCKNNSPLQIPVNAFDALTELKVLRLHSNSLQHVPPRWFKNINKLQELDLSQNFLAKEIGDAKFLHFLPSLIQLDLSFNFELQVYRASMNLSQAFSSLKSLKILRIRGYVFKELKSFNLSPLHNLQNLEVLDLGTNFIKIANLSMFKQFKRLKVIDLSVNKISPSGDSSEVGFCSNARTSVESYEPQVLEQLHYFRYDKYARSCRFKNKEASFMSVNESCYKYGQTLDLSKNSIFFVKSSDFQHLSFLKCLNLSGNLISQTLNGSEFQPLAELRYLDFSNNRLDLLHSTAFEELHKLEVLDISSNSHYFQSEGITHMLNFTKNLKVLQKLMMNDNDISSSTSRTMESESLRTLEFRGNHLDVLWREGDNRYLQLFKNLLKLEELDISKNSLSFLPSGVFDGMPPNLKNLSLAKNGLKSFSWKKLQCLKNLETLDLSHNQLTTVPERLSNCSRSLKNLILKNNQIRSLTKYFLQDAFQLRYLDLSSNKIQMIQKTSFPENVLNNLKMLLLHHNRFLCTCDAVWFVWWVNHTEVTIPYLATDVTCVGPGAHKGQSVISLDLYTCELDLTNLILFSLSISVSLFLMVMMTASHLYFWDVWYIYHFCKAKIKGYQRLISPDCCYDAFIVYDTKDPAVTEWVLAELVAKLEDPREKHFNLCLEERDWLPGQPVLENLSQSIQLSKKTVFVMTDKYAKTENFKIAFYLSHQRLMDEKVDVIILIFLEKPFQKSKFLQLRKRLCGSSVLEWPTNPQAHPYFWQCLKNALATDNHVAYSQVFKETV
In words: HEK293 TLR7/NFKb reporter cell assay with R848 agonist. Format: cell-based. The arrangement: expressed in transfected cells; host or cells: HEK293. As for the experimental part:
Into 384 CulturePlates (Corning 3707) was placed 5000 c/w of HEK293 TLR7/NFKb reporter cells in 30 µL DMEM without phenol red and 10% i.a. FCS and 2 mM L-glutamine. The cells were incubated for 24 h at 37° C., 10% carbon dioxide and 90% relative humidity. 3 µL of controls, standards, and compounds were dispensed to wells, incubated for 30 min then 3 µL of R848 agonist (Resiquimod) in 20 mM HEPES buffer was added. After incubation for 5 hours, it was allowed to stand at room temperature for 15 min. 10 µL of Steady-Glo substrate reagent was added and assay plates were shaken for 5 min at 1500 rpm. The assay plate was allowed to sit for 30 min at room temperature and then read on an EnVision plate reader.

In test [1] the test system is complex primary human cell systems. As to the kind of experiment: BioMAP Diversity PLUS phenotypic panel. The test is classed as cell-based. Conditions: hydroxychloroquine at 33 µM versus Pyronaridine at 3.3 µM. As to the method: Pyronaridine was profiled in the BioMAP® Diversity PLUS (BioSeek LLC, South San Francisco, CA) panel comprised of a well characterized set of complex primary human cell systems at 10, 3.3, 1.1, and 0.3 µM. Pyronaridine was tested across 12 BioMAP® Systems containing early passage primary human cells cultured alone or as cocultures and stimulated with various proinflammatory or immunomodulatory stimuli. […] A BioMAP activity profile was generated based on the levels of various readout parameters including cytokines or growth factors, expression of surface molecules, and cell proliferation. […]
Differentiating biomarkers are defined when one profile has a readout outside of the significance envelope with an effect size > 20% (|log10 ratio| > 0.1), and the readout for the other profile is either inside the envelope or in the opposite direction.

Where two headings read alike, the source gives them in different places. Bounds are passed on as bounds.

On to `COc1ccc2nc3cc(Cl)ccc3c(Nc3cc(CN4CCCC4)c(O)c(CN4CCCC4)c3)c2n1` [Compound 1, Pyronaridine], for which the IC50 at TLR7 (Example 4 results table, assay/readout not specified, read-out: Potency) was less than 1 µM; on TLR7 (HEK293 TLR7/NFKb reporter cells, R848 agonist, read-out: IC50 TLR7 (IL6 READOUT) HEK TRANSFECTED) it was 5 µM.

For the compound `CCN(CCO)CCCC(C)Nc1ccnc2cc(Cl)ccc12` (stereo not drawn) [HYDROXY-CHLOROQUINE HCQ, hydroxychloroquine], in test [1], the “BioMAP Diversity PLUS profile, overlay comparison” value is “noticeable similar pattern”.
